The assay addresses T1, Human Recombinant Matriptase 2 (Homo sapiens, UniProt Q8IU80).
T1 construct: purchased Enzo Life Sciences (an in-house preparation was also used) ALX-201-752-1
T1 sequence (Q8IU80 1-811): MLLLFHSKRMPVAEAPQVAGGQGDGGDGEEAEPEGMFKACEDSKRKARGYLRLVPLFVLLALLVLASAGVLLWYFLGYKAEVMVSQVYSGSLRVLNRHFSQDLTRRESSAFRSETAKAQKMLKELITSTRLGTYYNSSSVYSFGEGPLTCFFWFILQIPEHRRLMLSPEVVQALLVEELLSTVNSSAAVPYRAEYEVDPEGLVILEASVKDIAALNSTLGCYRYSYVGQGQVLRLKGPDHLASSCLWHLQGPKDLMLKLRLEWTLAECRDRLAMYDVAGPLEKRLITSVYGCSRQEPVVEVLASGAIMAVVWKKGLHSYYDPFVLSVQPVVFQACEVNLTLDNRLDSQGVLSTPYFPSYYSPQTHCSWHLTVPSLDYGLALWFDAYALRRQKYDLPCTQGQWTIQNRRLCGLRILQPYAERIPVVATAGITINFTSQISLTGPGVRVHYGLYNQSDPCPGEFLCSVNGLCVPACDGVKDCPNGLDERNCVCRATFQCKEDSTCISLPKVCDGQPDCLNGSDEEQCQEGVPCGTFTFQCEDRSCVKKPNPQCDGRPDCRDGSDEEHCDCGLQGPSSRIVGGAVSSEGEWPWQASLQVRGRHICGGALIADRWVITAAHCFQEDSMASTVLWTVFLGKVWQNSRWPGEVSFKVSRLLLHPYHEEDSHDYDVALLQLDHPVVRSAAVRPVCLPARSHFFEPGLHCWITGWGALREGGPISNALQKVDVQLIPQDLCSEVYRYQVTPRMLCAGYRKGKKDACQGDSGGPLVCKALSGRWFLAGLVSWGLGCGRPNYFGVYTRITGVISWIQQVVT
Description: Matriptase 2 fluorescence based inhibition assay, Method A (100 mM TRIS pH 9, 1 mg/mL BSA). The assay is classed as biochemical. The note with it: at 1 uM; Assay Used = A; read-out: Mar-2 % inhibition at 1 uM. The essentials: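 At 25° C in 100 mM TRIS pH 9 with 1 mg/mL BSA and 1% DMSO, compounds were preincubated 30 min with 7 nM commercial or 15 nM in-house protein before adding 100 μM Boc-Gln-Ala-Arg-7-amido-4-methyl coumarin. Fluorescence at 360/480 nm after 60 min; single points at 1 and 10 μM, IC50 by variable-slope nonlinear regression.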

Broadly, the inhibition is how much of the control response was suppressed. As for `NC(=O)c1ccc(Cn2c(C(=O)Nc3cc(N4CCCC4)ccn3)cc3ccc(/C(N)=N/O)cc32)cc1` [Compound I-269, 1-(4-Carbamoylbenzyl)-6-(N′-hydroxycarbamimidoyl)-N-(4-(pyrrolidin-1-yl)pyridin-2-yl)-1H-indole-2-carboxamide], the inhibition at 1 µM was 0 to 25%.
For `CC(C)CCn1c(C(=O)N2CCC(F)CC2)cc2ccc(C(=N)N)cc21` [Compound I-270, 2-(4-Fluoropiperidine-1-carbonyl)-1-isopentyl-1H-indole-6-carboximidamide] the value was 0 to 25%; for `CC(C)CCn1c(C(=O)N2CCC(F)(F)CC2)cc2ccc(C(=N)N)cc21` [Compound I-271], 0 to 25%.
For `CC(C)CCn1c(C(=O)N2CC[C@H](F)C2)cc2ccc(C(=N)N)cc21` [Compound I-272] the value was 0 to 25%; for `CC(C)CCn1c(C(=O)N2CCC(F)(F)C2)cc2ccc(C(=N)N)cc21` [Compound I-273], 0 to 25%.
For `N=C(N)c1ccc2cc(C(=O)N3CCC(CCN)CC3)n(CCCN)c2c1` [Compound I-274] the value was 25 to 50%; for `N=C(N)c1ccc2cc(C(=O)N3CCC(CCN)CC3)n(CCC(N)=O)c2c1` [Compound I-276], 25 to 50%.
Take `N=C(N)c1ccc2cc(C(=O)N3CCC(CCN)CC3)n(Cc3ccc(C(F)(F)F)cc3)c2c1` [Compound I-278]: the inhibition at 1 µM was in the range of 0 to 25%.
With `N=C(N)c1ccc2cc(C(=O)N3CC[C@H](F)C3)n(Cc3ccc(C(F)(F)F)cc3)c2c1` [Compound I-279], the inhibition at 1 µM lay within 0 to 25%.
Under `N=C(N)c1ccc2cc(C(=O)N3CCC(CCO)CC3)n(Cc3ccc(C(F)(F)F)cc3)c2c1` [Compound I-280] stands 0 to 25%; under `CCOC(=O)CCCC1CCN(C(=O)c2cc3ccc(C(=N)N)cc3n2Cc2ccc(C(F)(F)F)cc2)CC1` [Compound I-281], 0 to 25%.
For `N=C(N)c1ccc2cc(C(=O)N3CCC(F)CC3)n(Cc3ccc(C(F)(F)F)cc3)c2c1` [Compound I-282] the value was 0 to 25%; for `N=C(N)c1ccc2cc(C(=O)N3CCC(F)(F)CC3)n(Cc3ccc(C(F)(F)F)cc3)c2c1` [Compound I-283], 0 to 25%; for `N=C(N)c1ccc2cc(C(=O)N3CCC(F)(F)C3)n(Cc3ccc(C(F)(F)F)cc3)c2c1` [Compound I-285], 0 to 25%.
Under `N=C(N)c1ccc2cc(C(=O)N3CCC(CCNC(=O)c4ccccn4)CC3)n(Cc3ccc(C(F)(F)F)cc3)c2c1` [Compound I-286] stands 0 to 25%.
As to `N=C(N)c1ccc2cc(C(=O)N3CCC(CCOCCO)CC3)n(Cc3ccc(C(F)(F)F)cc3)c2c1` [Compound I-287], the inhibition at 1 µM is 0 to 25%.
Under `N=C(N)c1ccc2cc(C(=O)N3CCC(CCN)CC3)n(Cc3ccc(OC(F)(F)F)cc3)c2c1` [Compound I-288] stands 0 to 25%; under `N=C(N)c1ccc2cc(C(=O)N3CCC(F)CC3)n(Cc3ccc(OC(F)(F)F)cc3)c2c1` [Compound I-289], 0 to 25%.
For `N=C(N)c1ccc2cc(C(=O)N3CCC(F)(F)CC3)n(Cc3ccc(OC(F)(F)F)cc3)c2c1` [Compound I-290] the value was 0 to 25%; for `N=C(N)c1ccc2cc(C(=O)N3CCC(CF)CC3)n(Cc3ccc(OC(F)(F)F)cc3)c2c1` [Compound I-291], 0 to 25%.
Consider `CC(C)c1ccc(Cn2c(C(=O)N3CC[C@H](F)C3)cc3ccc(C(=N)N)cc32)cc1` [Compound I-293], for which the inhibition at 1 µM fell in the range of 0 to 25%.
For `CC(C)c1ccc(Cn2c(C(=O)N3CCC(F)(F)C3)cc3ccc(C(=N)N)cc32)cc1` [Compound I-294] the value was 0 to 25%; for `CC(C)c1ccc(Cn2c(C(=O)N3CCC(F)CC3)cc3ccc(C(=N)N)cc32)cc1` [Compound I-295], 0 to 25%; for `CC(C)c1ccc(Cn2c(C(=O)N3CCC(F)(F)CC3)cc3ccc(C(=N)N)cc32)cc1` [Compound I-296], 0 to 25%.
